From patent US9550796B2, “Pyrrolopyrrolone derivatives and their use as BET inhibitors” (NOVARTIS AG, priority 2013, dated 2017)

Experiments:
[1] = system: MV-4-11; assay: Cell growth inhibition assay (CellTiter-Glo), MV-4-11; format: cell-based, human; settings: MV-4-11 cells, 4 days; for GI50: Homo sapiens, MV4-11, 96 h, half-maximal growth inhibition; for MV-4-11 TGI: total growth inhibition
Summary of the method: (§1)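 ATP content was quantified with CellTiter-Glo after 4-day compound treatment (top 10 μM, 3-fold steps) at 37 °C. Readings were background- and day-0-corrected, scaled so vehicle equals 100% and medium equals −100%. Four-parameter fits gave half-maximal (IC50) and total growth inhibition concentrations.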

[2] = biological target: BRD4 (Homo sapiens (Human), UniProt O60885); assay: TR-FRET in-vitro binding assay for BRD4; settings: 45 nM His-Brd4(44-477), acetyl-histone H4 (AcK 5, 8, 12, 16) peptide
Summary of the method: (§2)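 TR-FRET binding read after 35 min incubation at 30° C. Compounds dispensed from 90% DMSO solutions and tested at 8 concentrations in a 13.55 μL total reaction volume.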

[3] = biological target: BRD4-NUT-fusion (Homo sapiens, UniProt O60885); assay: Nut-foci formation assay in HCC2494 NUT midline carcinoma cells; format: cell-based; settings: 24 hours, nuclear BRD4-NUT foci by immunofluorescence microscopy, read-out: HCS Brd4-NUT IC50
Description: Nut-Foci Formation Assay […] Compound-mediated inhibition of BRD4 activity can be monitored by quantification of the number and intensity of nuclear BRD4-NUT foci using automated immunofluorescence microscopy. Briefly, 5000 cells in 20 μL fresh medium are seeded into Poly-D-Lysine-precoated 384-well plates and incubated overnight at 37° C. and 5% CO2, followed by addition of 5 μl medium containing compound dilutions at 5-fold their final intended concentration. […] Assay plates can be imaged using the appropriate filter sets on the Cellomics VTi automated fluorescence microscopy platform (ThermoFisher Scientific) and the population average of the number of NUT-foci per nucleus is quantified using the Cellomics Spot Detection BioApplication image analysis algorithm (ThermoFisher Scientific). […] Compound concentrations leading to half-maximal (IC50) inhibition of the aforementioned readout parameters are determined using standard four parameter curve fitting.

[4] = biological target: BRD3 (Homo sapiens (Human), UniProt Q15059); assay: TR-FRET in-vitro binding assay for BRD3; settings: 45 nM His-Brd3(20-477), acetyl-histone H4 (AcK 5, 8, 12, 16) peptide
Chain of BRD3 (Q15059 20-477): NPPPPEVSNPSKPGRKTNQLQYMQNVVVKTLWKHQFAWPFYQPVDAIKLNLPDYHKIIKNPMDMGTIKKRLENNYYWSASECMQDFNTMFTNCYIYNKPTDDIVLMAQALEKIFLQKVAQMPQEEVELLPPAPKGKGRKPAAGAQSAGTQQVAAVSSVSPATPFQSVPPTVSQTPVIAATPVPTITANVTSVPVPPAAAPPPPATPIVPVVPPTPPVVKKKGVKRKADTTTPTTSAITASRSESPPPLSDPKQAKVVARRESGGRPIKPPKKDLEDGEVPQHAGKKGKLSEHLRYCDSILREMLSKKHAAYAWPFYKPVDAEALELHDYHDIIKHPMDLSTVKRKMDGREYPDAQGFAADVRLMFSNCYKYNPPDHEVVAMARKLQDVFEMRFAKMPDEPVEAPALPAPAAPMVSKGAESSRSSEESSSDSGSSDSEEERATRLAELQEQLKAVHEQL
Summary of the method: as §2

[5] = system: K-562; assay: Cell growth inhibition assay (CellTiter-Glo), K-562; format: cell-based, human; settings: K-562 cells, 4 days; for GI50: Homo sapiens, K562, 96 h, half-maximal growth inhibition; for K-562 TGI: total growth inhibition
Summary of the method: as §1

[6] = biological target: BRD2 (Homo sapiens (Human), UniProt P25440); assay: TR-FRET in-vitro binding assay for BRD2; settings: 45 nM His-Brd2(60-472), acetyl-histone H4 (AcK 5, 8, 12, 16) peptide
Chain of BRD2 (P25440 60-472): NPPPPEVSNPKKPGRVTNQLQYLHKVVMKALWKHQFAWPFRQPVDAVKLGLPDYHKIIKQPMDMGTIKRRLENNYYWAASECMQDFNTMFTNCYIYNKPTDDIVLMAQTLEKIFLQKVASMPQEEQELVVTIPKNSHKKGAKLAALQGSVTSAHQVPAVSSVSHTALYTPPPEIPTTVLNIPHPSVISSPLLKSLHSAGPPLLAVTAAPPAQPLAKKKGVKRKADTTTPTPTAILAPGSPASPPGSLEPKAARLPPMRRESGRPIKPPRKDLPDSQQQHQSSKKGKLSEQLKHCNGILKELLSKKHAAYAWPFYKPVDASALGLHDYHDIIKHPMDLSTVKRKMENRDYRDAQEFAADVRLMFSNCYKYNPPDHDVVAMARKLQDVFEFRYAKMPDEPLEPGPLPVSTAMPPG
Summary of the method: as §2

[7] = system: THP-1; assay: Cell growth inhibition assay (CellTiter-Glo), THP-1; format: cell-based, human; settings: THP-1 cells, 4 days; for GI50: Homo sapiens, 96 h, half-maximal growth inhibition; for THP-1 TGI: total growth inhibition
Summary of the method: as §1

[8] = biological target: CREBBP (Homo sapiens (Human), UniProt Q92793); assay: AlphaScreen in-vitro binding assay for CREBBP; settings: 324 nM His-CREBBP (1081-1197), acetyl-histone H4 (AcK 5, 8, 12) peptide
Chain of CREBBP (Q92793 1081-1197): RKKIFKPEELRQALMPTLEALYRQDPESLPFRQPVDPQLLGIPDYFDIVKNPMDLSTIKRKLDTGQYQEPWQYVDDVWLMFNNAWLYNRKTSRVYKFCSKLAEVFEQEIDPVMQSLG
Summary of the method: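 IC50 values were derived by non-linear regression of percent inhibition across 8 compound concentrations. Protein was His-tagged CREBBP bromodomain (1081-1197), peptide acetyl-histone H4 (AcK 5, 8, 12), in HEPES pH 7.5 buffer. Read-out was AlphaScreen with Ni-chelate acceptor and streptavidin donor beads, 35 min at 30° C then 60 min at RT.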

Structure (SMILES) | GI50 [1] | IC50 [2] | IC50 [3] | IC50 [4] | GI50 [5] | IC50 [6] | GI50 [7] | IC50 [8] | MV-4-11 TGI [1] | K-562 TGI [5] | THP-1 TGI [7]
COc1ncc(-c2cc3c(n2C)C(c2ccc(Cl)cc2)N(c2cc(C)c(=O)n(C)c2)C3=O)cn1 (stereo not drawn) [Example 55, 6-(4-chlorophenyl)-5-(1,5-dimethyl-6-oxo-1,6-dihydropyridin-3-yl)-2-(2-methoxypyrimidin-5-yl)-1-methyl-5,6-dihydropyrrolo[3,4-b]pyrrol-4(1H)-one] | 34.5 nM | 52 nM | 146 nM | 50 nM | 231 nM | 53 nM | 76.3 nM | – | 54.2 nM | >10000 nM | 130 nM
Cc1cc(N2C(=O)c3ccn(C4CC4)c3C2c2ccc(Cl)cc2)cn(C)c1=O (stereo not drawn) [Example 61, 6-(4-chlorophenyl)-1-cyclopropyl-5-(1,5-dimethyl-6-oxo-1,6-dihydropyridin-3-yl)-5,6-dihydropyrrolo[3,4-b]pyrrol-4(1H)-one] | 61.6 nM | 68 nM | 136 nM | 53 nM | 421 nM | 68 nM | 102 nM | – | 106 nM | >10000 nM | 224 nM
Cn1ccc2c1C(c1ccc(Cl)cc1)N(c1ccc(=O)n(C)c1)C2=O (stereo not drawn) [Example 78, 6-(4-chlorophenyl)-1-methyl-5-(1-methyl-6-oxo-1,6-dihydropyridin-3-yl)-5,6-dihydropyrrolo[3,4-b]pyrrol-4(1H)-one] | 486 nM | 150 nM | 729 nM | – | 1610 nM | – | 573 nM | – | 794.5 nM | >10000 nM | 1350 nM

Stronger by GI50 [1], values ahead:

GI50 [1] | IC50 [2] | IC50 [3] | IC50 [4] | GI50 [5] | IC50 [6] | GI50 [7] | IC50 [8] | Structure (SMILES) | MV-4-11 TGI [1] | K-562 TGI [5] | THP-1 TGI [7]
20.8 nM | 46 nM | 73.3 nM | 42 nM | 105 nM | 37 nM | 31.6 nM | – | Cc1cc(N2C(=O)c3cc(-c4ccc(N(C)C)nc4)n(C)c3C2c2ccc(Cl)cc2)cn(C)c1=O (stereo not drawn) [Example 50, 6-(4-chlorophenyl)-5-(1,5-dimethyl-6-oxo-1,6-dihydropyridin-3-yl)-2-(6-(dimethylamino)pyridin-3-yl)-1-methyl-5,6-dihydropyrrolo[3,4-b]pyrrol-4(1H)-one] | 33 nM | >10000 nM | 64.9 nM
0.341 nM | < 11 nM | – | 12 nM | 4.76 nM | 13 nM | 0.674 nM | 14100 nM | CC(=O)N1CC(n2cc(C3CC3)c3c2C(c2ccc(Cl)cc2)N(c2cc(C)c4nnn(C)c4n2)C3=O)C1 (stereo not drawn) [Example 105, 1-(1-acetylazetidin-3-yl)-6-(4-chlorophenyl)-3-cyclopropyl-5-(3,7-dimethyl-3H-[1,2,3]triazolo[4,5-b]pyridin-5-yl)-5,6-dihydropyrrolo[3,4-b]pyrrol-4(1H)-one] | 2.43 nM | >10000 nM | 2.38 nM
